Measurements published in US12012414B1, “Imidazo[1,5-a]pyrido[4,3-e]pyrimidines as CK2 inhibitors” (KING FAISAL UNIVERSITY, priority 2024, dated 2024).

How the values were obtained:
PC3 (prostate) = assay: In vitro cytotoxic activity (MTT) assay, PC3; assay type: cell-based; conditions: Homo sapiens, PC-3; PC3 cells, exposed for 96 hours, 50% inhibition of cell proliferation; read-out: Cytotoxicity activity IC50, PC3 (prostate)
Method: (§1) Compounds 1-16 were screened for their in vitro cytotoxic activity utilizing a 3-(4,5-dimethyl-thiazol-2-yl)-2,5-diphenyltetrazolium bromide (MTT) assay against selected cancer human cell lines consisting of PC3 (prostate), HCT116 (colon), A375 (melanoma), H1299 (lung), MIAPaCa-2 (pancreas), HL60 (leukemia), MCF7 (breast), MDA-MB-231 (breast) (T. Mosmann, J. Immunol. Meth., 1983, 65, 55-63). The cells were cultured at 37° C. in RMPI1640 medium supplemented with 10% fetal bovine serum, 50 IU/mL penicillin, and 50 μg/mL streptomycin in a 5% CO2 incubator. All cells were sub-cultured 3 times/week by trypsinisation. Viable cells were seeded and allowed to adhere for 12 hours before a test drug was added in 96-well plates at an initial density of 1.0×10^5 cells/mL. Tumor cell lines were separately exposed to various concentrations of the tested compounds followed by incubation at a temperature of 37° C. during 96 hours inside a medium of fresh RMPI 1640. Cells were subsequently incubated at 37° C. using MTT at 0.5 mg/mL during 4 hours. After removal of supernatant, formazan crystals were dissolved in isopropanol and the optical density was measured at 570 nm. CX-4945 was used as a positive control.

MCF7 (breast) = assay: In vitro cytotoxic activity (MTT) assay, MCF7; assay type: cell-based; conditions: Homo sapiens; MCF7 cells, exposed for 96 hours, 50% inhibition of cell proliferation; read-out: Cytotoxicity activity IC50, MCF7 (breast)
Method: as §1

HCT116 (colon) = assay: In vitro cytotoxic activity (MTT) assay, HCT116; assay type: cell-based; conditions: Homo sapiens, HCT-116; HCT116 cells, exposed for 96 hours, 50% inhibition of cell proliferation; read-out: Cytotoxicity activity IC50, HCT116 (colon)
Method: as §1

HL60 (leukemia) = assay: In vitro cytotoxic activity (MTT) assay, HL60; assay type: cell-based; conditions: Homo sapiens, HL-60; HL60 cells, exposed for 96 hours, 50% inhibition of cell proliferation; read-out: Cytotoxicity activity IC50, HL60 (leukemia)
Method: as §1

MDA-MB-231 (breast) = assay: In vitro cytotoxic activity (MTT) assay, MDA-MB-231; assay type: cell-based; conditions: Homo sapiens; MDA-MB-231 cells, exposed for 96 hours, 50% inhibition of cell proliferation; read-out: Cytotoxicity activity IC50, MDA-MB-231 (breast)
Method: as §1

recombinant human CK2 = biological target: T1, recombinant human CK2 (Homo sapiens, UniProt P68400); assay: CK2 Kinase Assay (33P-ATP, substrate peptide RRRDDDSDDD); assay type: biochemical; conditions: recombinant human CK2 holoenzyme, final ATP concentration 15 μM, 10 min at 30° C.; read-out: protein kinase CK2 IC50
T1 construct: purchased Millipore
Method: CK2 Kinase Assay was conducted using the protocol as described in Pierre F. et al; J. Med. Chem. 2011, 54, 635-654. The tested compounds in aqueous solution were added at a volume of 10 μL to a reaction mixture comprising 10 μL of assay dilution buffer (ADB; 20 mM MOPS, pH 7.2, 25 mM β-glycerol phosphate, 5 mM EGTA, 1 mM sodium orthovanadate, and 1 mM dithiothreitol), 10 μL of substrate peptide (RRRDDDSDDD, dissolved in ADB at a concentration of 1 mM), 10 μL of recombinant human CK2 (RROP-holoenzyme, 25 ng dissolved in ADB; Millipore). Reactions were initiated by the addition of 10 μL of ATP solution (90% 75 mMMgCl2, 75 μM ATP (final ATP concentration: 15 μM) dissolved in ADB; 10% [γ-33P] ATP (stock 1 mCi/100 μL; 3000 Ci/mmol (Perkin-Elmer) and maintained for 10 min at 30° C. The reactions were quenched with 100 μL of 0.75% phosphoric acid and then transferred to and filtered through a phosphor cellulose filter plate (Millipore). After washing each well five times with 0.75% phosphoric acid, the plate was dried under vacuum for 5 min and, following the addition of 15 μL of scintillation fluid to each well, the residual radioactivity was measured using a Wallac […] counter. The IC50 values were derived from eight concentrations of test inhibitors.

MIAPaCa-2 (pancreas) = assay: In vitro cytotoxic activity (MTT) assay, MIAPaCa-2; assay type: cell-based; conditions: Homo sapiens, MIA PaCa-2; MIAPaCa-2 cells, exposed for 96 hours, 50% inhibition of cell proliferation; read-out: Cytotoxicity activity IC50, MIAPaCa-2 (pancreas)
Method: as §1

A375 (melanoma) = assay: In vitro cytotoxic activity (MTT) assay, A375; assay type: cell-based; conditions: Homo sapiens, A-375; A375 cells, exposed for 96 hours, 50% inhibition of cell proliferation; read-out: Cytotoxicity activity IC50, A375 (melanoma)
Method: as §1

H1299 (lung) = assay: In vitro cytotoxic activity (MTT) assay, H1299; assay type: cell-based; conditions: Homo sapiens, NCI-H1299; H1299 cells, exposed for 96 hours, 50% inhibition of cell proliferation; read-out: Cytotoxicity activity IC50, H1299 (lung)
Method: as §1

T1 sequence (P68400 whole entry): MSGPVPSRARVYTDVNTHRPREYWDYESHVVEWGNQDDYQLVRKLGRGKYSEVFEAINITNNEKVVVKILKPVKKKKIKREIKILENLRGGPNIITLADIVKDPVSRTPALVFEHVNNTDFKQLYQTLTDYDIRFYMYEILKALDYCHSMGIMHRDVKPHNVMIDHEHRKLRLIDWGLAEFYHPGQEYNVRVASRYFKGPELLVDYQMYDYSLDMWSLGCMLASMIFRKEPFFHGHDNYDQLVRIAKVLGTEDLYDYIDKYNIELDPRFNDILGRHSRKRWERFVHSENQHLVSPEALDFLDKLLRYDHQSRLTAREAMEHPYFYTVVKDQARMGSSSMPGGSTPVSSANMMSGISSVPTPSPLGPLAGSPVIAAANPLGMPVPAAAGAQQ
T1 sequence (P67870 whole entry partner): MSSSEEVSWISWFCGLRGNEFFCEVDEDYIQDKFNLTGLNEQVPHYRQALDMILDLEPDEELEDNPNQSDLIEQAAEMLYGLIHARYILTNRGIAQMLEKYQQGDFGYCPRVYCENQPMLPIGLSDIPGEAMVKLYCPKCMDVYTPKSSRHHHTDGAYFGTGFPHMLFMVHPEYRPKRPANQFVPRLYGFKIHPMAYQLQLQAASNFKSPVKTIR

O=C(O)c1ncn2c1nc(Nc1cccc(Cl)c1)c1ccncc12 [Compound 1, 5-((3-chlorophenyl)amino)imidazo[1,5-a]pyrido[4,3-e]pyrimidine-3-carboxylic acid]
IC50 (PC3 (prostate)): 1700 nM
IC50 (MCF7 (breast)): 5400 nM
IC50 (HCT116 (colon)): 2000 nM
IC50 (HL60 (leukemia)): 3600 nM
IC50 (MDA-MB-231 (breast)): 4500 nM
IC50 (recombinant human CK2): 74 nM
IC50 (MIAPaCa-2 (pancreas)): 1300 nM
IC50 (A375 (melanoma)): 3800 nM
IC50 (H1299 (lung)): 1900 nM
